Data set [1] is described as follows: Test of solubility of GLPG1205 in culture medium for incubations. It is filed as physicochemical. As to conditions: culture medium for incubation; final DMSO percentage 0.4%; read-out: limit of solubility in culture medium for incubations. The method, then: Solubility and cytotoxicity experiments were performed prior to incubation of GLPG1205 with cells.
Test of Solubility Prior to incubation of GLPG1205 with cells, a preliminary test of solubility was performed. Various stock solutions of GLPG1205 in dimethylsulfoxide (DMSO) were prepared. Different solutions were prepared by diluting the stock solutions in culture medium for incubation to obtain 100, 200, 250, 400 and 500 µM with different final percentages of solvent (maximum 0.5% DMSO, volume/volume [v/v]).

The next data set deals with CYP1A2. The experiment in a line: in vitro. As to conditions: human. The method, then: GLPG1205 was incubated with monolayer cultures of fresh human hepatocytes from 3 individual donors for 24 hours (messenger ribonucleic acid [mRNA] analysis) or 48 hours (enzyme activity) at 6 different concentrations: 0.5, 1, 5, 10, 50, and 100 μM (0.19, 0.38, 1.89, 3.78, 18.9, and 37.8 μg/mL, respectively). All incubations contained 0.4% dimethylsulfoxide (DMSO). Incubation with 50 μM omeprazole containing 0.1% DMSO was used as a positive control. Incubations with 0.1% and 0.4% DMSO alone were used as negative controls.
Following a 48‐hour incubation period, an enzymatic assay assessed phenacetin O‐deethylase (a CYP1A2 substrate) activity by measuring the CYP1A2‐dependent metabolite acetaminophen in supernatants. Acetaminophen was quantified using liquid chromatography coupled with tandem mass spectrometry (LC‐MS/MS).
A concentration‐dependent increase in mRNA of <100% was considered a negative finding when the increase in mRNA was less than 20% of the response of the positive control.
Incubation for CYP1A2 Induction Experiment The incubations for enzyme activity measurements were performed with cell monolayers in 96-well plates and the incubations for mRNA measurements were performed with cell monolayers in 24-well plates.^3
GLPG1205 was incubated with monolayer culture of human fresh hepatocytes from 3 individual donors for 24 or 48 hours, for messenger ribonucleic acid (mRNA) analysis and enzyme activity, respectively, at 6 different concentrations (n = 3): 0.1, 0.5, 1, 5, 10 and 50 µM (0.038, 0.19, 0.38, 1.89, 3.78 and 18.9 µg/mL, respectively). […] Incubation with 50 µM omeprazole containing 0.1% DMSO was used as a positive control. Incubations with 0.1% and 0.4% DMSO alone were used as negative controls. The CMI was William’s E medium with hepatocytes induction additives. Cells were cultured at 37°C in a humidified carbon dioxide/air (5%/95%) atmosphere. Culture media were renewed daily in all wells.
Enzymatic Assay At the end of the 48-hour incubation period, CYP1A2 enzyme activity was measured in intact cells by incubating with phenacetin, a probe substrate. Cells were first washed with minimum essential medium (MEM) devoid of phenol red to remove remaining test compounds or reference inducers and were then incubated for 2 hours at 37°C with 200 µM phenacetin in MEM devoid of phenol red and containing 0.1% DMSO. Assessment of phenacetin O-deethylase activity in supernatants was carried out by measuring the CYP1A2-dependent metabolite acetaminophen. Cell protein content was also determined; protein content was measured according to the bicinchoninic acid method^4 and calculated using a bovine serum albumin standard curve.
A 2-fold dilution of the specimens in a solution of 1 µM D4-acetaminophen in water with 0.1% formic acid was performed and 20 µL were injected into the LC-MS/MS system. The mobile phase consisted of ammonium acetate 5 mM in water (A) and formic acid 0.3% in acetonitrile/methanol, 50/50, v/v. The following gradient was applied with a 1.5 mL/min flow rate and an oven temperature of 40°C: 98% A from 0 minutes; 70% A from 2.5 minutes; 1% A from 2.6 minutes; 1% A from 3.2 minutes; 98% A from 3.25 minutes; 98% A from 4.5 minutes. In this condition, the retention time of acetaminophen was approximately 2.33 minutes. Controls were performed by injecting calibration standards at the beginning and end of each run. […]

In the next data set the test system is CYP3A4. Further details: method as in PMID 33960725, PMID 29780235. The following applies: cortisol:6β‐hydroxycortisol ratio in urine; cited from earlier work.
[2] abbreviates: Phenacetin O-deethylase activity, fold induction.

Data on one compound can be found in article PMC8453848, “Effect of GLPG1205, a GPR84 Modulator, on CYP2C9, CYP2C19, and CYP1A2 Enzymes: In Vitro and Phase 1 Studies” (Clinical Pharmacology in Drug Development, 2021).

Converted amounts (≈) assume the structure as drawn.

A word on the solubility: it is the concentration that dissolves in the medium under given conditions. The term fold induction denotes the signal under treatment as a multiple of the control signal. Take `O=c1nc(OC[C@@H]2COCCO2)cc2n1CCc1cc(C#CC3CC3)ccc1-2` [GLPG1205, 9‐cyclopropylethynyl‐2‐[(S)‐1‐(1,4)dioxan‐2‐ylmethoxy]‐6,7‐dihydropyrimido[6,1‐a]isoquinolin‐4‐one]: the solubility at 24 h in data set [1] stood at 100 µM (≈ 37.8 µg/mL). Also, the “Phenacetin O-deethylase activity, fold induction” value with CYP1A2 (48 h, 50 µM) is 0.367 ± 0.021 fold. In addition, in the data set with CYP1A2 (setting [2]), the fold induction at 48 h, 0.1 µM came out at 1.64 ± 0.256 and the fold induction at 48 h, 50 µM was 0.335 ± 0.033. For the same compound, in the data set with CYP1A2 (hepatocytes, 48 h), the “increases in CYP1A2 activity compared with the negative control (0.4% DMSO)” value is recorded as ≤ 2 fold and the “increases in CYP1A2 activity, % of the positive control (omeprazole)” value is “lower than 40%”. For the same compound, the CYP3A4 induction entry with CYP3A4 is given as “did not induce CYP3A4”.
